Measured values published in patent publication EP0336800A1, “Methods and kit for determining sulfamethazine in animal fluids or feed” (IDETEK, INC., priority 1988, dated 1989).
“And” between values parts separate entries of the source, which are not always exact repeats. Equal entries are not always repeated.

Test system: anti-sulfamethazine antibody
Assay: Competitive direct enzyme immunoassay (EIA) with immobilized anti-sulfamethazine antibody and sulfamethazine-HRP conjugate
Format: binding, New Zealand female white rabbits
Conditions: for % Cross-Reactivity: (nM of sulfamethazine for 50% binding/nM sulfa analogue for 50% binding) x 100; for % Binding Mean: quadruplicate on 14 different days
Method: Each well of the microtiter plate was filled with 200 µL solution of r-Protein A (2 µg/mL in l0 mM PBS, pH 7.2). These strips were sealed and incubated at 4°C for 5 hours. The r-Protein A solution was aspirated and the wells were washed 5 times with saline-Tween (0.9 percent NaCl containing 0.05 percent Tween-20). Each well was then incubated with 300µL solution of 0.l percent casein in 20 mM PBS, pH 7.2, at 37°C for 30 min and washed as described above. Each well was then filled with 200µL of antibody solution (l2.5 µg/mL in 50 mM carbonate-bicarbonate buffer, pH 9.6) and incubated at 4°C overnight (l5-20 hours). The solution was aspirated and the wells air-dried at room temperature for 2-3 hours. The antibody immobilized microtiter wells thus prepared were stored in ziplock bags at 4°C.
The enzyme conjugate (sulfamethazine-HRP) was appropriately diluted (generally l:l000) with 20 mM PBS, pH 7.2, containing 0.0l percent casein (w/v) and mixed with standards or samples in l0:l ratio. The mixture was transferred to wells ([…]) and incubated at 37°C for l hour. The wells were washed five times with 20 mM PBS, pH 7.2, containing 0.05 percent Tween-20 (v/v). Each well was then filled with l00 µL of ABTS substrate solution (combine l:l (v/v) lmM ABTS, 0.lM citrate, pH 4.0, and 0.0l% thimerosal with 0.0l% H₂O₂, and 0.0l% thimerosal) and incubated at 37°C for about 20 min for color (bluish-green) development. The color development was stopped with l00 µL of l percent SDS solution (w/v). Absorbance of the color was monitored at 405 nm in an EIA plate reader. Percent binding was calculated from the absorbance contained in the absence (B′) and presence (B) of sulfamethazine in standards/samples as follows: % binding = (B/B′) x l00.
A standard curve was prepared by plotting log sulfamethazine concentration vs. percent binding. The content of sulfamethazine in an unknown sample was determined from the standard curve.

Compound | % Cross-Reactivity | other results
COc1cc(NS(=O)(=O)c2ccc(N)cc2)nc(OC)n1 [Sulfadimethoxine] | 0.06% | 
Nc1ccc(S(=O)(=O)Nc2ccc3cn[nH]c3c2)cc1 [N′-(6-Indazolyl) sulfanilamine] | 0.0% | 
Nc1ccc(S(=O)(=O)NC(=O)c2ccccc2)cc1 [Sulfabenzamide] | 0.0% | 
NS(=O)(=O)c1ccc(C(=O)O)cc1 [4-Carboxybenzenesulfonamide] | 0.0% | 
COc1cnc(NS(=O)(=O)c2ccc(N)cc2)nc1 [5-Methoxysulfadiazine] | 0.34% | 
CC(=O)NS(=O)(=O)c1ccc(N)cc1 [Sulfacetamide] | 0.66% | 
Cc1nc(NS(=O)(=O)c2ccc(N)cc2)oc1C [N′-(4,5-Dimethyloxazol-2-yl) sulfanilamide] | 0.0% | 
Cc1cc(C)nc(N)n1 [2-Amino-4,6-Dimethylpyrimidine] | 0.07% | 
Cc1cc(C(C)(C)C)c(O)c(C(C)(C)C)c1 [2,6-Di-tert.-butyl-4-methyl phenol] | 0.0% | 
Nc1ccc(S(=O)(=O)[O-])cc1.O.[Na+] [Sulfanilic acid, sodium salt hydrate] | 0.0% | 
Nc1ccc(S(=O)(=O)F)cc1 [Sulfanilyl fluoride] | 0.0% | 
Nc1ccc(S(=O)(=O)Nc2ccc(Cl)nn2)cc1 [Sulfachloropyridazine] | 0.0% | 
Nc1ccc(S(=O)(=O)Nc2ncccn2)cc1 [Sulfadiazine] | 0.0% | 

Now from value to compound, other results behind:

% Cross-Reactivity | Compound | other results
0.0% | CC(=O)Nc1ccc(S(=O)(=O)Nc2ccc([N+](=O)[O-])cc2)cc1 [Sulfanitran] | 
100.0% | Cc1cc(C)nc(NS(=O)(=O)c2ccc(N)cc2)n1 [Sulfamethazine] | competition with sulfamethazine-HRP conjugate for antibody binding (competitive EIA at 0 µg/mL and 0.l µg/mL of sulfamethazine): competed effectively; 50% inhibition in binding (mid-region of the EIA standard curve, standards in swine plasma): around 0.l; % Binding Mean (sulfamethazine standard 0.016 µg/mL): 83.1%; % Binding Mean (sulfamethazine standard 0.031 µg/mL): 76.0%; % Binding Mean (sulfamethazine standard 0.063 µg/mL): 64.2%; % Binding Mean (sulfamethazine standard 0.125 µg/mL): 48.4%; % Binding Mean (sulfamethazine standard 0.25 µg/mL): 31.4%; % Binding Mean (sulfamethazine standard 0.5 µg/mL): 18.3%; % Binding Mean (sulfamethazine standard 1.0 µg/mL): 10.5%
0.0% | COc1ccc(NS(=O)(=O)c2ccc(N)cc2)nn1 [Sulfamethoxypyridazine] | 
0.0% | Cc1cc(NS(=O)(=O)c2ccc(N)cc2)nc(C)n1 [Sulfisomidine] | 
0.0% | Cc1nnc(NS(=O)(=O)c2ccc(N)cc2)s1 [Sulfamethizole] | 
0.0% | Nc1ccc(S(=O)(=O)Nc2ccccn2)cc1 [Sulfapyridine] | 
0.0% | Nc1ccc(S(=O)(=O)Nc2cnc3ccccc3n2)cc1 [Sulfaquinoxaline] | 
12% and 12.10% | Cc1ccnc(NS(=O)(=O)c2ccc(N)cc2)n1 [Sulfamerazine] | 
0.0% | NS(N)(=O)=O [Sulfamide] | 
0.0% | Cc1cc(NS(=O)(=O)c2ccc(N)cc2)no1 [Sulfamethoxazole] | 
0.07% | Nc1ccc(S(=O)(=O)Nc2nccs2)cc1 [Sulfathiazole] | 
0.0% | [H]/N=C(/N)NS(=O)(=O)c1ccc(N)cc1 [Sulfaguanidine] | 
0.0% | Cc1noc(NS(=O)(=O)c2ccc(N)cc2)c1C [Sulfisoxazole] | 
0.0% | Nc1ccc(S(N)(=O)=O)cc1 [Sulfanilamide] | 
0.0% | Sulfasazine | 
0.0% | Cc1c[nH]c(=O)[nH]c1=O [Thymine] | 
